{"source": "ChEMBL document CHEMBL2434914", "about": "(Bioorg Med Chem Lett, 2013)", "key": {"[1]": {"test": "Cytotoxicity against human MM1S cells after 48 hrs by ATPlite assay", "format": "functional, cell-based", "conditions": "MM1.S"}, "[2]": {"target": "T1, Protein deacetylase HDAC6 (Homo sapiens, UniProt Q9UBN7)", "T1 sequence (Q9UBN7 whole entry)": "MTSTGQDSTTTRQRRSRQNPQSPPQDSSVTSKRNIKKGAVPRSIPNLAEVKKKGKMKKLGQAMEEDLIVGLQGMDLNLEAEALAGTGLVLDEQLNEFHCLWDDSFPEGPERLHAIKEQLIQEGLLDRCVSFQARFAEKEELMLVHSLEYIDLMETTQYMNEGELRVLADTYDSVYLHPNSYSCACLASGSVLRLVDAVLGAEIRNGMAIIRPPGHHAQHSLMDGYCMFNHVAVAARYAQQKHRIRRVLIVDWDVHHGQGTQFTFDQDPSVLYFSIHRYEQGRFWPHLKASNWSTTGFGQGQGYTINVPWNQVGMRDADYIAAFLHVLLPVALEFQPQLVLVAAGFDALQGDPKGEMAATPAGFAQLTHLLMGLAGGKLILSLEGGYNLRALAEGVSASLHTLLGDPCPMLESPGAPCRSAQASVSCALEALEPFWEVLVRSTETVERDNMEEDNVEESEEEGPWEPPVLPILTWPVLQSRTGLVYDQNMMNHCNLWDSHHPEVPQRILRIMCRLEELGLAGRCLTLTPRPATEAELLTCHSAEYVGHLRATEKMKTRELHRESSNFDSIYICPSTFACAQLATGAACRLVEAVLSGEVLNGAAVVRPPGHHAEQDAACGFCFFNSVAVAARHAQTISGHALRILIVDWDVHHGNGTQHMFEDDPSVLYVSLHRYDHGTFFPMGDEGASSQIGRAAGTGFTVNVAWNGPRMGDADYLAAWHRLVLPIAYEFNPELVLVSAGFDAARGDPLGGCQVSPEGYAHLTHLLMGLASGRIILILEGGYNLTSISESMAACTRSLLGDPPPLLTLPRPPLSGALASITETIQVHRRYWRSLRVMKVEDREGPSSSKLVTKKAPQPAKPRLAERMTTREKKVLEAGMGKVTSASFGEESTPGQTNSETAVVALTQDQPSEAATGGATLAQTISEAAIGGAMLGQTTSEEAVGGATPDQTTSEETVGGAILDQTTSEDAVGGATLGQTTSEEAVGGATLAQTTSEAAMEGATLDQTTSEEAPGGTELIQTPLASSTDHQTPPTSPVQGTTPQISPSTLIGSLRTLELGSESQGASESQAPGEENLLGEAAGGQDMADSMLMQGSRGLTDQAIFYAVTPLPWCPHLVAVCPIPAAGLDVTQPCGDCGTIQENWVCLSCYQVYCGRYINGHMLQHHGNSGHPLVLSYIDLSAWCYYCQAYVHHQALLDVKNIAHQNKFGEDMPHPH", "test": "Inhibition of HDAC6 (unknown origin) using MAZ1600 and MAZ1675 as substrate assessed as fluorogenic release of 7-amino-4-methylcoumarin from substrate by optimized homogenous assay"}, "[3]": {"target": "Histone deacetylase 3 (Homo sapiens, UniProt O15379)", "sequence (O15379 whole entry)": "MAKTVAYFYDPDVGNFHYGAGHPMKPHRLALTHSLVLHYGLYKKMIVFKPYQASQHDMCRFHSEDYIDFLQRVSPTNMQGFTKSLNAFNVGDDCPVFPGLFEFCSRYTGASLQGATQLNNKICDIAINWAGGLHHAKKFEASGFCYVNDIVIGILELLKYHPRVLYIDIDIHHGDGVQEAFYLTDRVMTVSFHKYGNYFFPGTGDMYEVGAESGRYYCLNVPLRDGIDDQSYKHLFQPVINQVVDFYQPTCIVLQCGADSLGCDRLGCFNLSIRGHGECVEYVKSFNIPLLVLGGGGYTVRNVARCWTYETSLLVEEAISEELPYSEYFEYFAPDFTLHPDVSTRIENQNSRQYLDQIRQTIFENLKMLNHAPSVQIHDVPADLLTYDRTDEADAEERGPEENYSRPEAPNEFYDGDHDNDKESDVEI", "test": "Inhibition of HDAC3 (unknown origin) using MAZ1600 and MAZ1675 as substrate assessed as fluorogenic release of 7-amino-4-methylcoumarin from substrate by optimized homogenous assay"}, "[4]": {"target": "Histone deacetylase 2 (Homo sapiens, UniProt Q92769)", "sequence (Q92769 whole entry)": "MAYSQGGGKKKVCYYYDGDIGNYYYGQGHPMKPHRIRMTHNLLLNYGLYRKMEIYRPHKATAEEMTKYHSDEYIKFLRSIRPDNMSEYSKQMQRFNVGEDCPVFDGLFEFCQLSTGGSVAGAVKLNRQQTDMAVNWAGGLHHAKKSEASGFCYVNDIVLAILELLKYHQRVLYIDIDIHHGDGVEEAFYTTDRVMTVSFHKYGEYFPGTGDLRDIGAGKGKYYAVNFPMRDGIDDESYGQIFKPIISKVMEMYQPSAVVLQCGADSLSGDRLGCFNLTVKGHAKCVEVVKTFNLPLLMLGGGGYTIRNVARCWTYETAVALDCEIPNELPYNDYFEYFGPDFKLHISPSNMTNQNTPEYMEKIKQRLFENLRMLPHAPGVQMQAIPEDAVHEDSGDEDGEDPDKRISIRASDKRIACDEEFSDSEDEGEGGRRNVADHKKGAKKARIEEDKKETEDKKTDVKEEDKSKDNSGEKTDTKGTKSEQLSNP", "test": "Inhibition of HDAC2 (unknown origin) using MAZ1600 and MAZ1675 as substrate assessed as fluorogenic release of 7-amino-4-methylcoumarin from substrate by optimized homogenous assay"}, "[5]": {"target": "Histone deacetylase 1 (Homo sapiens, UniProt Q13547)", "sequence (Q13547 whole entry)": "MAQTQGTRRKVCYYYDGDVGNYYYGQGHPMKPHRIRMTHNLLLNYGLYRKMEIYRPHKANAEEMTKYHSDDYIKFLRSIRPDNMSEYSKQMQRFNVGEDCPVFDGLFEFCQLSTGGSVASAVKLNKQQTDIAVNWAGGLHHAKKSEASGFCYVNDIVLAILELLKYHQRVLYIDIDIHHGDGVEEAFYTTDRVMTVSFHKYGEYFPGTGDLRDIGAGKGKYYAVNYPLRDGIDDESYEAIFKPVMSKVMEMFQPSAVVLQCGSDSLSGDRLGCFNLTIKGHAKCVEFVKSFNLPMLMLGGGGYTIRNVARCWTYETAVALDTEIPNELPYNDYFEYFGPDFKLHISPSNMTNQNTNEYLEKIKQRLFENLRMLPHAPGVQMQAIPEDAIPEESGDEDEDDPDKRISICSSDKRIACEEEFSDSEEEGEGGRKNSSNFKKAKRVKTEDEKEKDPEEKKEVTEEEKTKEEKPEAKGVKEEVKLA", "test": "Inhibition of HDAC1 (unknown origin) using MAZ1600 and MAZ1675 as substrate assessed as fluorogenic release of 7-amino-4-methylcoumarin from substrate by optimized homogenous assay"}, "[6]": {"target": "T2, Histone deacetylase 8 (Homo sapiens, UniProt Q9BY41)", "T2 sequence (Q9BY41 whole entry)": "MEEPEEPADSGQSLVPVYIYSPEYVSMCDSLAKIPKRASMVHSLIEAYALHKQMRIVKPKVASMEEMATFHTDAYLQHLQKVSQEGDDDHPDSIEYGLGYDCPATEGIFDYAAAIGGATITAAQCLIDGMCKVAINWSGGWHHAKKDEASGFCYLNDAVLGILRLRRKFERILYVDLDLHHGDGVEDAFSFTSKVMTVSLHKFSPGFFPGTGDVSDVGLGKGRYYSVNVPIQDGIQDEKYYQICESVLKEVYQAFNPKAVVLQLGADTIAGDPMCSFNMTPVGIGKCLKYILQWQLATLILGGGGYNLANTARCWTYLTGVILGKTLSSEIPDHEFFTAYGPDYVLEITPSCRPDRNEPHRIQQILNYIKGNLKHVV", "test": "Inhibition of HDAC8 (unknown origin) using MAZ1600 and MAZ1675 as substrate assessed as fluorogenic release of 7-amino-4-methylcoumarin from substrate by optimized homogenous assay"}, "[7]": {"target": "T3, Histone deacetylase 7 (Homo sapiens, UniProt Q8WUI4)", "T3 sequence (Q8WUI4 whole entry)": "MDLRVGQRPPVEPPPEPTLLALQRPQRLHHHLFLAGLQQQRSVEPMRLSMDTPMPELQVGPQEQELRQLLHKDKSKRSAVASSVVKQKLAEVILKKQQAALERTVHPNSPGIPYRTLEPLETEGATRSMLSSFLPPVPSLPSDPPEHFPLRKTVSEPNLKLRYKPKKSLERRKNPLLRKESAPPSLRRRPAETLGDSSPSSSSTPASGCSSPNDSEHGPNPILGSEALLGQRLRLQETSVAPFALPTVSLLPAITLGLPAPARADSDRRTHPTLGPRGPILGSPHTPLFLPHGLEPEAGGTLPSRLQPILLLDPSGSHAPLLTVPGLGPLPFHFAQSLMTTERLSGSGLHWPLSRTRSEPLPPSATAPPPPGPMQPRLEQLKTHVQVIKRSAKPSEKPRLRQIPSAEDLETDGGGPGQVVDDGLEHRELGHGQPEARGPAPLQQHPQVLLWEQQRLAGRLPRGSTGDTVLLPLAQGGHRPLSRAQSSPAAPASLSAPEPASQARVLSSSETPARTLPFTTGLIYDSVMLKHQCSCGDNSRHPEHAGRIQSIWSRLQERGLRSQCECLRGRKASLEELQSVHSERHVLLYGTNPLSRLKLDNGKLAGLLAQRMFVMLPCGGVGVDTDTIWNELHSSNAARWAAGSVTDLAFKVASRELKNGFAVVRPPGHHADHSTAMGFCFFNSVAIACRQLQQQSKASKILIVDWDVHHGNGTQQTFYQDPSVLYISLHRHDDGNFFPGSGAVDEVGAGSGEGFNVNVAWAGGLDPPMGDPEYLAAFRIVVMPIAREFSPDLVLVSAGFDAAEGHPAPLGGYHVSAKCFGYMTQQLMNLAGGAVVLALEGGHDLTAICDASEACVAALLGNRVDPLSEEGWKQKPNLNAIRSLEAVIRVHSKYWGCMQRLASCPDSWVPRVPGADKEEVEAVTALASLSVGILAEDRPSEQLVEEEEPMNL", "test": "Inhibition of HDAC7 (unknown origin) using MAZ1600 and MAZ1675 as substrate assessed as fluorogenic release of 7-amino-4-methylcoumarin from substrate by optimized homogenous assay"}}, "data": [{"smiles": "CCCCCCCC(=O)SCC/C=C/[C@@H]1CC(=O)NCc2nc(co2)C2=N[C@@](C)(CS2)C(=O)N[C@@H](C(C)C)C(=O)O1", "values": [{"measurement": "IC50", "setting": "[1]", "result": 120, "unit": "nM"}, {"measurement": "IC50", "setting": "[2]", "result": 1100, "unit": "nM"}, {"measurement": "IC50", "setting": "[3]", "result": 1900, "unit": "nM"}, {"measurement": "IC50", "setting": "[4]", "result": 2100, "unit": "nM"}, {"measurement": "IC50", "setting": "[5]", "result": 950, "unit": "nM"}]}, {"smiles": "CC(C)[C@@H]1NC(=O)[C@]2(C)CSC(=N2)c2coc(n2)CNC(=O)C[C@@H](/C=C/CCS)OC1=O", "values": [{"measurement": "IC50", "setting": "[1]", "result": 6200, "unit": "nM"}, {"measurement": "IC50", "setting": "[6]", "result": 1200, "unit": "nM"}, {"measurement": "IC50", "setting": "[7]", "result": 960, "unit": "nM"}, {"measurement": "IC50", "setting": "[2]", "result": 98, "unit": "nM"}, {"measurement": "IC50", "setting": "[3]", "result": 7.2, "unit": "nM"}, {"measurement": "IC50", "setting": "[4]", "result": 20, "unit": "nM"}, {"measurement": "IC50", "setting": "[5]", "result": 4.4, "unit": "nM"}]}, {"smiles": "CC(C)[C@@H]1NC(=O)[C@]2(C)CSC(=N2)c2coc(n2)CNC(=O)C[C@@H](/C=C/CCSSCC/C=C/[C@@H]2CC(=O)NCc3nc(co3)C3=N[C@@](C)(CS3)C(=O)N[C@@H](C(C)C)C(=O)O2)OC1=O", "values": [{"measurement": "IC50", "setting": "[1]", "result": 910, "unit": "nM"}, {"measurement": "IC50", "setting": "[2]", "result": 50, "unit": "nM"}, {"measurement": "IC50", "setting": "[3]", "result": 550, "unit": "nM"}, {"measurement": "IC50", "setting": "[4]", "result": 1300, "unit": "nM"}, {"measurement": "IC50", "setting": "[5]", "result": 150, "unit": "nM"}]}]}
